These results are taken from patent US4857516A, “Coumaran derivatives and their pharmaceutical use” (Takeda Chemical Industries, Ltd., priority 1986, dated 1989).

In assay [1] the target is T1, 5-lipoxygenase (Rattus norvegicus, UniProt P12527).
T1 construct: endogenous in cells; host or cells: RBL-1 (rat basophilic leukemia cells)
T1 sequence (P12527 1-673): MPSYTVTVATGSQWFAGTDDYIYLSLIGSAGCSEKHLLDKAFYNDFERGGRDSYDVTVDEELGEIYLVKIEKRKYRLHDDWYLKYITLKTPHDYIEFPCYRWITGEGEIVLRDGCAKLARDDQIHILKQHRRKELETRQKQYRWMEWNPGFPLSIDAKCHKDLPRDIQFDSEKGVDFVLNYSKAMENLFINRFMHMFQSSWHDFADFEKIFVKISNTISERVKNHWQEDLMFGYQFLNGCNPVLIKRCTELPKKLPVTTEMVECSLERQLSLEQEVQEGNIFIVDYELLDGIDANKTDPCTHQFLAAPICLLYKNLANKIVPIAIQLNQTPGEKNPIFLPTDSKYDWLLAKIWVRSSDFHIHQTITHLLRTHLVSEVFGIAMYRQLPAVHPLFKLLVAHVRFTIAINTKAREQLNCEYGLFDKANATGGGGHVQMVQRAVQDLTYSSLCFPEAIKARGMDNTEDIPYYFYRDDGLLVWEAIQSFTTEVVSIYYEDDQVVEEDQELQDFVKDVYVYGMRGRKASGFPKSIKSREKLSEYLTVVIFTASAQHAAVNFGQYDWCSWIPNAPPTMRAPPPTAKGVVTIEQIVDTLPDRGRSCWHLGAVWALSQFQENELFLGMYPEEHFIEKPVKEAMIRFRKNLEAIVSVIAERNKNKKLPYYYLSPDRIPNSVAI
Description: Inhibition of 5-lipoxygenase (5-HETE production in RBL-1 cells). Type of assay: cell-based. The note with it: for inhibition at 1 µM: 10^-6 M; for inhibition at 0.1 µM: 10^-7 M; for inhibition at 0.01 µM: 10^-8 M. As to the method: 10^7 RBL-1 cells (rat basophilic leukemia cells) were suspended in 0.5 ml of MCM (mast cell medium). […] Then 4 ml of ethanol was added, and the mixture was well shaken and kept at room temperature for 10 min.
The mixture was centrifuged for 10 min. (2000 rpm), and the supernatant was separated. The supernatant obtained was concentrated to dryness under reduced pressure. To the residue 0.5 ml of 60 v/v % aqueous methanol was added. One hundred μl of this solution was subjected to high performance liquid chromatography for quantitative analysis of 5-HETE (5-hydroxyeicosatetraenoic acid). The amount of 5-HETE was determined by measurement of the absorbance at 237 nm with a UV absorption monitor.
The inhibitory effect (IE) of production of 5-HETE is expressed by (1-b/a)×100, wherein a is the peak height or the area corrected with the peak due to the internal standard in the absence of the compound (I) or a pharmaceutically acceptable salt thereof, and b is the peak height or peak area corrected with the peak due to the internal standard in the presence of the compound (I) or a pharmaceutically acceptable salt thereof.

The test system of assay [2] is generation of HHT in rat platelets. The experiment in a line: Inhibitory effect on the generation of 12-hydroxyheptadeca-5,8,10-trienoic acid (HHT) in rat platelets. Type of assay: cell-based. Particulars: rat platelet rich plasma; for inhibition at 100 µM: 10^-4 M; for inhibition at 10 µM: 10^-5 M. As to the method: Blood was collected in 3.2 v/v % sodium citrate (0.8 ml for 7.2 ml of blood) from the abdominal aorta of male Wister rats (Jcl, 12 to 15 weeks) anesthesized with pentobarbital. Platelet rich plasma (PRP) was obtained by centrifuging the blood at 800 rpm for 10 min at room temperature. Platelet poor plasma (PPP) was prepared by centrifuging the remaining blood at 3,000 rpm for 10 min. The platelet concentration of PRP was adjusted to 1,000,000/μl with PPP. […]
The reaction was stopped by adding 100 ml of ethanol and the mixture was allowed to stand for 10 min. at room temperature. The reaction mixture was centrifuged at 2,000 rpm for 10 min. and the supernatant obtained was evaporated. To the concentrate, 0.2 ml of 60 v/v % aqueous ethanol was added.
100 μl of this solution was subjected to high performance liquid chromatography for quantitative analysis of HHT. The amount of HHT was determined by measurement of absorbance at 237 nm with a UV absorption monitor.
The inhibitory effect (IE) on the generation of HHT is expressed by (1-b/a)×100, wherein a is the peak height or the peak area corrected with the peak due to the internal standard in the absence of the compound (I) or a pharmaceutically acceptable salt thereof, and b is the peak height or the peak area corrected with the peak due to the internal standard in the compound (I) or a pharmaceutically acceptable salt thereof.

In assay [3] the test system is lipid peroxide production in rat brain homogenates. The experiment in a line: Inhibitory action on lipid peroxide production in rat brain homogenates. Type of assay: biochemical. Particulars: 5 v/v % rat brain homogenate, pH 7.4, 1 hour at 37° C.; read-out: Inhibition (IC50) of lipid peroxide production. The procedure:
The male SD rat (12 weeks) brain tissue was extracted under anesthesia after depletion. The extracted brain tissue was used as 5 v/v % homogenate in phosphate buffer (pH 7.4). After incubation of the homogenate for 1 hour at 37° C., the peroxide produced was determined by the thiobarbituric acid method according to the method described in Analytical Biochemistry, 95, 551 (1979).
Before incubation, test compounds were added in 5 v/v % homogenate so that their final concentration becomes 10^-5 M. […]

The term inhibition denotes the share of the control response that was lost under treatment. A word on the IC50: it is the concentration at which inhibition is half-maximal. In assay [1], `Cc1c(C)c2c(c(C)c1O)C(c1cccnc1)C(C)(C)O2` (stereo not drawn) [Example 1, 5-hydroxy-2,2,4,6,7-pentamethyl-3-(3-pyridyl)-2,3-dihydrobenzofuran] showed an inhibition at 1 µM of 89%, an inhibition at 0.1 µM of 57% and an inhibition at 0.01 µM of 16%. Moreover, in assay [2], testing at 100 µM gave an inhibition of 76% and the inhibition at 10 µM is 47%. For the same compound, in assay [3], the IC50 stood at 220 nM.

In assay [1], `Cc1c(C)c2c(c(C)c1O)C(c1cccnc1)C1(CCCC1)O2` (stereo not drawn) [Example 2] had an inhibition at 1 µM of 91%, an inhibition at 0.1 µM of 70% and an inhibition at 0.01 µM of 18%. In assay [2], this compound yielded an inhibition at 100 µM of 79% and an inhibition at 10 µM of 52%. The IC50 in assay [3] was 750 nM.

With `Cc1c2c(c3ccccc3c1O)OC(C)(C)C2c1cccnc1` (stereo not drawn) [Example 5], in assay [1], at 1 µM the inhibition was 99%, 0.1 µM produced 22% inhibition and the inhibition at 0.01 µM amounted to 0%. In assay [2], this compound returned an inhibition at 100 µM of 84% and an inhibition at 10 µM of 54%. In assay [3], the IC50 is 120 nM.

Regarding `Cc1c(C)c2c(c(C)c1O)C(c1cccnc1)C1(CCCCC1)O2` (stereo not drawn) [Example 3, 5-hydroxy-4,6,7-trimethyl-3-(3-pyridyl)-3H-benzofuran-2-spirocyclohexane], in assay [1], 1 µM produced 91% inhibition, testing at 0.1 µM gave an inhibition of 64% and the inhibition at 0.01 µM was determined as 20%. In assay [2], at 100 µM the inhibition was 40% and the inhibition at 10 µM amounted to 7%. Besides, the IC50 in assay [3] stood at 150 nM.

Regarding `Cc1c(C)c2c(c(C)c1O)C(c1ccccn1)C(C)(C)O2` (stereo not drawn) [Example 4], in assay [1], the inhibition at 1 µM was determined as 98%, the inhibition at 0.1 µM worked out at 18% and the inhibition at 0.01 µM worked out at 0%. In assay [2], at 100 µM the inhibition was 29% and the inhibition at 10 µM was 9%. Moreover, the IC50 in assay [3] worked out at 250 nM.

In assay [1], `Cc1c(C)c2c(c(C)c1O)C(c1ccccc1)C(C)(C)O2` (stereo not drawn) [Example 6, 5-hydroxy-2,2,4,6,7-pentamethyl-3-phenyl-2,3-dihydrobenzofuran] came in with an inhibition at 1 µM of 92%, an inhibition at 0.1 µM of 18% and an inhibition at 0.01 µM of 0%. In assay [2], this compound gave an inhibition at 100 µM of 49% and an inhibition at 10 µM of 7%. Moreover, the IC50 in assay [3] amounted to 130 nM.
